In US8658697B2 (priority 2004, dated 2014):

Test system: Tacaribe virus (TRVL 11573)
Assay: microbe, parasite or virus in culture
Assay type: cell-based
Conditions: Mammarenavirus tacaribeense, Vero, read-out: Tacaribe EC50

| SMILES | EC50 [nM] |
| --- | --- |
| CC(NC(=O)NNS(=O)(=O)c1cc(F)ccc1F)(C(F)(F)F)C(F)(F)F [Example 42, N-2-(1,1,1,3,3,3-Hexafluoro-2-methylpropyl)-2-[(2,5-difluorophenyl)sulfonyl]hydrazine-1-carboxamide] | 1000 to 5000 |
| Cc1ccc(S(=O)(=O)N(C)NC(=O)NC(C)(C(F)(F)F)C(F)(F)F)cc1 [Example 43, N-2-(1,1,1,3,3,3-Hexafluoro-2-methylpropyl)-2-[(4-methylphenyl)sulfonyl]-2-methylhydrazine-1-carboxamide] | 1000 to 5000 |
| CC(NC(=O)NNS(=O)(=O)c1c(Cl)cccc1Cl)(C(F)(F)F)C(F)(F)F [Example 44, N-2-(1,1,1,3,3,3-Hexafluoro-2-methylpropyl)-2-[(2,6-dichlorophenyl)sulfonyl]hydrazine-1-carboxamide] | 1000 to 5000 |
| CC(NC(=O)NNS(=O)(=O)c1c(C(F)(F)F)cccc1C(F)(F)F)(C(F)(F)F)C(F)(F)F [Example 45, N-2-(1,1,1,3,3,3-Hexafluoro-2-methylpropyl)-2-[(2,6-ditrifluoromethylphenyl)sulfonyl] hydrazine-1-carboxamide] | 1000 to 5000 |
| Cc1ccc(S(=O)(=O)NNC(=O)N(C)C(C)(C(F)(F)F)C(F)(F)F)cc1 [Example 46, N-2-(1,1,1,3,3,3-Hexafluoro-2-methylpropyl)-2-[(4-methylphenyl)sulfonyl]hydrazine-1-methylcarboxamide] | > 5000 |
| Cc1noc(C)c1S(=O)(=O)NNC(=O)NC(C)(C(F)(F)F)C(F)(F)F [Example 47, N-2-(1,1,1,3,3,3-Hexafluoro-2-methylpropyl)-2-[(3,5-dimethylisoxazol-5-yl)sulfonyl]hydrazine-1-carboxamide] | > 5000 |
| CC(NC(=O)NNS(=O)(=O)c1ccc([N+](=O)[O-])cc1)(C(F)(F)F)C(F)(F)F [Example 48, N-2-(1,1,1,3,3,3-Hexafluoro-2-methylpropyl)-2-[(4-nitrophenyl)sulfonyl]hydrazine-1-carboxamide] | > 5000 |
| Cn1cnc(S(=O)(=O)NNC(=O)NC(C)(C(F)(F)F)C(F)(F)F)c1 [Example 49, N-2-(1,1,1,3,3,3-Hexafluoro-2-methylpropyl)-2-[(1-methylimidazol-4-yl)sulfonyl]hydrazine-1-carboxamide] | > 5000 |
| CC(NC(=O)NNS(C)(=O)=O)(C(F)(F)F)C(F)(F)F [Example 50, N-2-(1,1,1,3,3,3-Hexafluoro-2-methylpropyl)-2-[methylsulfonyl]hydrazine-1-carboxamide] | > 5000 |
| CC(NC(=O)N1CCN(c2ccccc2)CC1)(C(F)(F)F)C(F)(F)F [Example 51, 4-Phenylpiperazine-1-(2,2,2-trifluoro-1-methyl-1-trifluoromethylethyl)-carboxamide] | < 500 |
| CC(NC(=O)N1CCOCC1)(C(F)(F)F)C(F)(F)F [Example 52, 4-Morpholino-1-(2,2,2-trifluoro-1-methyl-1-trifluoromethylethyl)-carboxamide] | < 500 |
| CC(=O)c1ccccc1NC(=O)NC(C)(C(F)(F)F)C(F)(F)F [Example 53, 1-(2-Acetylphenyl)-3-(2,2,2-trifluoro-1-methyl-1-trifluoromethylethyl)-urea] | 500 to 1000 |
| CC(NC(=O)N1CCCCC1)(C(F)(F)F)C(F)(F)F [Example 54, 1-Piperidino-1-(2,2,2-trifluoro-1-methyl-1-trifluoromethylethyl)-carboxamide] | 500 to 1000 |
| COc1cc(NC(=O)NC(C)(C(F)(F)F)C(F)(F)F)cc(OC)c1OC [Example 55, 1-(2,2,2-trifluoro-1-methyl-1-trifluoromethylethyl)-3-(3,4,5-trimethoxyphenyl)-urea] | 500 to 1000 |
| CC(NC(=O)Nc1ccc(C(F)(F)F)cc1)(C(F)(F)F)C(F)(F)F [Example 56, 1-(4-Trifluoromethylphenyl)-3-(2,2,2-trifluoro-1-methyl-1-trifluoromethylethyl)-urea] | 500 to 1000 |
| CN1CCN(C(=O)NC(C)(C(F)(F)F)C(F)(F)F)CC1 [Example 57, 4-Methylpiperazine-1-(2,2,2 trifluoro-1-methyl-1-trifluoromethylethyl)-carboxamide] | 1000 to 5000 |
| CC(NC(=O)Nc1cccc2ccccc12)(C(F)(F)F)C(F)(F)F [Example 58, 1-Naphthalen-1-yl-3-(2,2,2-trifluoro-1-methyl-1-trifluoromethylethyl)-urea] | 1000 to 5000 |
| CC(NC(=O)N1CCC(c2ccccc2)CC1)(C(F)(F)F)C(F)(F)F [Example 60, 4-Phenylpiperidin-1-yl-1-(2,2,2-trifluoro-1-methyl-1-trifluoromethylethyl)-carboxamide] | 1000 to 5000 |
| CC(NC(=O)Nc1ccccc1-c1ccccc1)(C(F)(F)F)C(F)(F)F [Example 61] | 1000 to 5000 |
| CC(NC(=O)Nc1c(F)cccc1F)(C(F)(F)F)C(F)(F)F [Example 62, 1-(2,6-Difluorophenyl)-3-(2,2,2-trifluoro-1-methyl-1-trifluoromethylethyl)-urea] | 1000 to 5000 |
| CC(NC(=O)Nc1ccccc1C(N)=O)(C(F)(F)F)C(F)(F)F [Example 63, 2-[3-(1,1-Bis-trifluoromethylethyl)-ureido]benzamide] | 1000 to 5000 |
| CC(NC(=O)Nc1c(F)cccc1Cl)(C(F)(F)F)C(F)(F)F [Example 64, 1-(2-Chloro-6-fluorophenyl)-3-(2,2,2-trifluoro-1-methyl-1-trifluoromethylethyl)-urea] | 1000 to 5000 |

| SMILES | EC50 [nM] |
| --- | --- |
| CC(NC(=O)Nc1cccc(C(F)(F)F)c1)(C(F)(F)F)C(F)(F)F [Example 65, 1-(3-Trifluoromethylphenyl)-3-(2,2,2-trifluoro-1-methyl-1-trifluoromethylethyl)-urea] | 1000 to 5000 |
| CC(NC(=O)Nc1ccccc1S(N)(=O)=O)(C(F)(F)F)C(F)(F)F [Example 66, 2-[3-(1,1-Bis-trifluoromethylethyl)-ureido]benzenesulfonamide] | 1000 to 5000 |
| CC(NC(=O)Nc1cccc2c1OC(F)(F)C(F)(F)O2)(C(F)(F)F)C(F)(F)F [Example 67, 1-(2,2,3,3-Tetrafluoro-2,3-dihydrobenzo[1,4]dioxin-5-yl)-3-(2,2,2-trifluoro-1-methyl-1-trifluoromethylethyl)-urea] | 1000 to 5000 |
| CC(NC(=O)Nc1cccc(OC(F)(F)F)c1)(C(F)(F)F)C(F)(F)F [Example 68, 1-(3-Trifluoromethoxyphenyl)-3-(2,2,2-trifluoro-1-methyl-1-trifluoromethylethyl)-urea] | 1000 to 5000 |
| CC(NC(=O)Nc1ccc(OC(F)(F)F)cc1)(C(F)(F)F)C(F)(F)F [Example 69, 1-(4-Trifluoromethoxyphenyl)-3-(2,2,2-trifluoro-1-methyl-1-trifluoromethylethyl)-urea] | 1000 to 5000 |
| CC1CCN(C(=O)NC(C)(C(F)(F)F)C(F)(F)F)CC1 [Example 70, 4-Methyl-1-piperidine-1-(2,2,2-trifluoro-1-methyl-1-trifluoromethylethyl)-carboxamide] | 1000 to 5000 |
| CC(NC(=O)Nc1ccc2ccccc2c1)(C(F)(F)F)C(F)(F)F [Example 71, 1-Naphthalen-2-yl-3-(2,2,2-trifluoro-1-methyl-1-trifluoromethylethyl)-urea] | 1000 to 5000 |
| CC(NC(=O)Nc1ccccc1F)(C(F)(F)F)C(F)(F)F [Example 72, 1-(2-fluorophenyl)-3-(2,2,2-trifluoro-1-methyl-1-trifluoromethylethyl)-urea] | 1000 to 5000 |
| COc1cccc(OC)c1NC(=O)NC(C)(C(F)(F)F)C(F)(F)F [Example 73, l-(2,6-Dimethoxyphenyl)-3-(2,2,2-trifluoro-1-methyl-1-trifluoromethylethyl)-urea] | 1000 to 5000 |
| CC(NC(=O)Nc1ccc(C(=O)O)cc1OC(F)(F)F)(C(F)(F)F)C(F)(F)F [Example 74, 3-Trifluormethoxy-4-[3-(1,1-bis-trifluoromethylethyl)-ureido]benzoic acid] | 1000 to 5000 |
| CC(NC(=O)Nc1ccccc1)(C(F)(F)F)C(F)(F)F [Example 75, 1-Phenyl-3-(2,2,2-trifluoro-1-methyl-1-trifluoromethylethyl)-urea] | 1000 to 5000 |
| CC(NC(=O)Nc1cccc(C#N)c1)(C(F)(F)F)C(F)(F)F [Example 76, 1-(3-Cyanophenyl)-3-(2,2,2-trifluoro-1-methyl-1-trifluoromethylethyl)-urea] | 1000 to 5000 |
| COc1cccc(NC(=O)NC(C)(C(F)(F)F)C(F)(F)F)c1 [Example 77, 1-(3-Methoxyphenyl)-3-(2,2,2-trifluoro-1-methyl-1-trifluoromethylethyl)-urea] | 1000 to 5000 |
| CC(NC(=O)Nc1ccccc1OC(F)(F)C(F)F)(C(F)(F)F)C(F)(F)F [Example 78, 1-(2-(1,1,2,2-Tetrafluoroethoxy)phenyl)-3-(2,2,2-trifluoro-1-methyl-1-trifluoromethylethyl)-urea] | 1000 to 5000 |
| CC(NC(=O)Nc1cccc(S(N)(=O)=O)c1)(C(F)(F)F)C(F)(F)F [Example 79, 3-[3-(1,1-Bis-trifluoromethylethyl)-ureido]benzenesulfonamide] | 1000 to 5000 |
| CC(NC(=O)Nc1cccc(F)c1)(C(F)(F)F)C(F)(F)F [Example 80, 1-(3-fluorophenyl)-3-(2,2,2-trifluoro-1-methyl-1-trifluoromethylethyl)-urea] | 1000 to 5000 |
| CC(NC(=O)Nc1ccc(Br)cc1)(C(F)(F)F)C(F)(F)F [Example 81, 1-(4-Bromophenyl)-3-(2,2,2-trifluoro-1-methyl-1-trifluoromethylethyl)-urea] | 1000 to 5000 |
| CC(NC(=O)Nc1ccccc1C#N)(C(F)(F)F)C(F)(F)F [Example 82, 1-(2-Cyanophenyl)-3-(2,2,2-trifluoro-1-methyl-1-trifluoromethylethyl)-urea] | 1000 to 5000 |
| CC(NC(=O)Nc1ccc(C#N)cc1)(C(F)(F)F)C(F)(F)F [Example 83, 1-(4-Cyanophenyl)-3-(2,2,2-trifluoro-1-methyl-1-trifluoromethylethyl)-urea] | 1000 to 5000 |
| CC(NC(=O)Nc1cccc2c1OC(F)(F)O2)(C(F)(F)F)C(F)(F)F [Example 84, 1-(2,2-Difluorobenzo[1,3]dioxol-4-yl)-3-(2,2,2-trifluoro-1-methyl-1-trifluoromethylethyl)-urea] | 1000 to 5000 |
| CC(NC(=O)Nc1ccc(Cl)cc1)(C(F)(F)F)C(F)(F)F [Example 85, 1-(4-Chlorophenyl)-3-(2,2,2-trifluoro-1-methyl-1-trifluoromethylethyl)-urea] | > 5000 |
